Columns and labels:
Assay type in all cases: in vivo
[1] = tested on: Ipomoea hederacea (IPOHE); assay: Pre-Emergence Test (herbicidal, glasshouse pots); settings: evaluated after 13 days, five-point scale
[2] = tested on: Echinochloa crus-galli (ECHCG); assay: Pre-Emergence Test (herbicidal, glasshouse pots); settings: evaluated after 13 days, five-point scale
[3] = tested on: Amaranthus retoflexus (AMARE); assay: Pre-Emergence Test (herbicidal, glasshouse pots); settings: evaluated after 13 days, five-point scale
Zea mays (ZEAMX) [4] = assay: Pre-Emergence Test (herbicidal, glasshouse pots); settings: evaluated after 13 days, five-point scale
[5] = tested on: Amaranthus palmeri (AMAPA); assay: Pre-Emergence Test (herbicidal, glasshouse pots); settings: evaluated after 13 days, five-point scale
[6] = tested on: Amaranthus palmeri (AMAPA); assay: Post-Emergence Test (herbicidal, glasshouse pots); settings: evaluated after 13 days
Description: (§1) Seeds of a variety of test species are sown in standard soil in pots (Setaria faberi (SETFA), Ipomoea hederacea (IPOHE), Echinochloa crus-galli (ECHCG), (Amaranthus retoflexus (AMARE), Zea mays (ZEAMX), and Amaranthus palmeri (AMAPA)). After 8 days cultivation under controlled conditions in a glasshouse (at 24° C./16° C., day/night; 14 hours light; 65% humidity), the plants arm sprayed with an aqueous spray solution derived from the formulation of the technical active ingredient in acetone/water (50:50) solution containing 0.5% Tween 20 (polyoxyethylene sorbitan monolaurate, CAS RN 9005-84-5). Rate of application is shown in g/ha in the tables below. The test plants are then grown in a glasshouse under controlled conditions in a glasshouse (at 24° C./16° C., day/night; 14 hours light; 65% humidity) and watered twice daily. After 13 days the test is evaluated for the percentage damage caused to the plant. The biological activities are shown in the following table on a five-point scale (5=81-100%; 4=61-80%; 3=41-60%; 2=21-40%; 1=0-20%; -=not tested).

[7] = tested on: Amaranthus retoflexus (AMARE); assay: Post-Emergence Test (herbicidal, glasshouse pots); settings: evaluated after 13 days
Description: as §1

[8] = tested on: Echinochloa crus-galli (ECHCG); assay: Post-Emergence Test (herbicidal, glasshouse pots); settings: evaluated after 13 days
Description: as §1

[9] = tested on: Ipomoea hederacea (IPOHE); assay: Post-Emergence Test (herbicidal, glasshouse pots); settings: evaluated after 13 days
Description: as §1

Zea mays (ZEAMX) [10] = assay: Post-Emergence Test (herbicidal, glasshouse pots); settings: evaluated after 13 days
Description: as §1

Setaria faberi (SETFA) = assay: Pre-Emergence Test (herbicidal, glasshouse pots); settings: rate 250 g/ha, evaluated after 13 days, five-point scale

Row | Compound | percentage damage caused to the plant, IPHOE ([1]; rate 1000 g/ha) | percentage damage caused to the plant, ECHCG ([2]; rate 1000 g/ha) | percentage damage caused to the plant, AMARE ([3]; rate 1000 g/ha) | percentage damage caused to the plant, ZEAMX (Zea mays (ZEAMX) [4]; rate 1000 g/ha) | percentage damage caused to the plant, AMAPA ([5]; rate 1000 g/ha) | Post-Emergence Test AMAPA percentage damage (five-point scale) ([6]; rate 1000 g/ha) | Post-Emergence Test AMARE percentage damage (five-point scale) ([7]; rate 1000 g/ha) | Post-Emergence Test ECHCG percentage damage (five-point scale) ([8]; rate 1000 g/ha) | Post-Emergence Test IPHOE percentage damage (five-point scale) ([9]; rate 1000 g/ha) | Post-Emergence Test ZEAMX percentage damage (five-point scale) (Zea mays (ZEAMX) [10]; rate 1000 g/ha) | other results
1 | CCn1c(Nc2ccc(C)c(C(F)(F)F)c2)cc(=O)c(C(=O)O)c1-c1ccc(Cl)c(Cl)c1 [Compound 23, 2-(3,4-dichlorophenyl)-1-ethyl-6-[4-methyl-3-(trifluoromethyl)anilino]-4-oxo-pyridine-3-carboxylic acid] | 0 | 1 (1=0-20%) | 1 (1=0-20%) | 0 | 0 | 0 | 1 (1=0-20%) | 0 | 0 | 0 | 
2 | CCn1c(Nc2ccc(F)cc2)cc(=O)c(C(=O)O)c1-c1ccc(Cl)c(Cl)c1 [Compound 9, 2-(3,4-dichlorophenyl)-1-ethyl-6-(4-fluoroanilino)-4-oxo-pyridine-3-carboxylic acid] |  |  |  |  |  |  |  |  |  |  | percentage damage caused to the plant, SETFA (Setaria faberi (SETFA)): 0; percentage damage caused to the plant, IPHOE ([1]; rate 250 g/ha): 0; percentage damage caused to the plant, ECHCG ([2]; rate 250 g/ha): 0; percentage damage caused to the plant, AMARE ([3]; rate 250 g/ha): 0; percentage damage caused to the plant, ZEAMX (Zea mays (ZEAMX) [4]; rate 250 g/ha): 0; percentage damage caused to the plant, AMAPA ([5]; rate 250 g/ha): 1 (1=0-20%); Post-Emergence Test AMAPA percentage damage (five-point scale) ([6]; rate 250 g/ha): 1 (1=0-20%); Post-Emergence Test AMARE percentage damage (five-point scale) ([7]; rate 250 g/ha): 2 (2=21-40%); Post-Emergence Test ECHCG percentage damage (five-point scale) ([8]; rate 250 g/ha): 1 (1=0-20%); Post-Emergence Test IPHOE percentage damage (five-point scale) ([9]; rate 250 g/ha): 4 (4=61-80%); Post-Emergence Test ZEAMX percentage damage (five-point scale) (Zea mays (ZEAMX) [10]; rate 250 g/ha): 0
3 | CCn1c(Oc2cc(F)cc(F)c2)cc(=O)c(C(=O)O)c1-c1ccc(Cl)c(Cl)c1 [Compound 15, 2-(3,4-dichlorophenyl)-6-(3,5-difluorophenoxy)-1-ethyl-4-oxo-pyridine-3-carboxylic acid] | 3 (3=41-60%) | 4 (4=61-80%) | 1 (1=0-20%) | 1 (1=0-20%) | 1 (1=0-20%) | 3 (3=41-60%) | 4 (4=61-80%) | 3 (3=41-60%) | 3 (3=41-60%) | 3 (3=41-60%) | 
4 | CCn1c(Oc2cccnc2F)cc(=O)c(C(=O)O)c1-c1ccc(Cl)c(Cl)c1 [Compound 34, 2-(3,4-dichlorophenyl)-1-ethyl-6-[(2-fluoro-3-pyridyl)oxy]-4-oxo-pyridine-3-carboxylic acid] | 3 (3=41-60%) | 4 (4=61-80%) | 3 (3=41-60%) | 4 (4=61-80%) | 2 (2=21-40%) | 3 (3=41-60%) | 3 (3=41-60%) | 4 (4=61-80%) | 2 (2=21-40%) | 3 (3=41-60%) | 
5 | CCn1c(Sc2ccc(F)cc2)cc(=O)c(C(=O)O)c1-c1ccc(Cl)c(Cl)c1 [Compound 10, 2-(3,4-dichlorophenyl)-1-ethyl-6-(4-fluorophenyl)sulfanyl-4-oxo-pyridine-3-carboxylic acid] | 2 (2=21-40%) | 2 (2=21-40%) | 1 (1=0-20%) | 0 | 0 | 1 (1=0-20%) | 1 (1=0-20%) | 2 (2=21-40%) | 2 (2=21-40%) | 1 (1=0-20%) | 

— patent US20250324971A1, “HERBICIDAL DERIVATIVES” (SYNGENTA CROP PROTECTION AG, priority 2022, published 2025)
